Among the test systems are MOLT-4; NCI-H226; Malme-3M; K562; SNB-75; HCT-15; SF-295; NCI-H460; LOX IMVI; UACC-257; SK-MEL-28; M14; HCT-116; CCRF-CEM; A549; U-251; COLO 205; SK-OV-3; SF-539; A498.
What all share (assay): NCI anticancer screen, dose series, 48 h

Molecules are shown by their SMILES.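 The compound was tested at five concentrations on cells cultured in 96-well plates, with a 48-hour exposure period. At the GI50, growth is halved.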 Activity calls are given as the source filed them. Rule as the data show it: active = GI50 up to about 1.1 µM and inactive = higher.

On to `COc1ccc2c(c1)C(=O)CC(C(N)=O)C2` (stereo not given), for which the GI50 was > 100 µM (inactive) in the test with MOLT-4; > 100 µM (inactive) in the test with NCI-H226; > 100 µM (inactive) in the test on Malme-3M; > 100 µM (inactive) in the test on K562; 53.1 µM (inactive) in the test on SNB-75; above 100 µM in the test on HCT-15. Besides, the GI50 with SF-295, in the test with NCI-H460, in the test on LOX IMVI, in the test on UACC-257, with SK-MEL-28 and in the test with M14 was > 100 µM (inactive) in each case. Moreover, the GI50 in the test with HCT-116, with CCRF-CEM, in the test with A549, in the test with U-251, in the test on COLO 205 and in the test on SK-OV-3 was > 100 µM (inactive) each time.
With `O=CN1CCN(c2ccc3ccc(O)nc3n2)CC1`, the GI50 with MOLT-4, in the test on NCI-H226, with Malme-3M, with K562, in the test on SF-539 and in the test with SNB-75 was > 100 µM (inactive) throughout. Besides, the GI50 in the test on HCT-15 is above 100 µM; in the test with SF-295, > 100 µM (inactive); in the test on NCI-H460, > 100 µM (inactive); in the test with LOX IMVI, > 100 µM (inactive); with UACC-257 it was > 100 µM (inactive); with SK-MEL-28 it was > 100 µM (inactive). Further, the GI50 in the test on M14, in the test on HCT-116, with CCRF-CEM, in the test on A549, with U-251 and with COLO 205 was > 100 µM (inactive) throughout. The GI50 with SK-OV-3 is > 100 µM (inactive).
With `CC(=O)NC1CC2Oc3ccc(C)cc3C(C)(O2)C1O` (stereo not given), the GI50 with MOLT-4, in the test on NCI-H226, with Malme-3M, with K562, in the test with SF-539 and with SNB-75 was > 100 µM (inactive) each time. The GI50 with HCT-15 was above 100 µM; with SF-295, > 100 µM (inactive); with NCI-H460 it was > 100 µM (inactive); with LOX IMVI, > 100 µM (inactive); in the test on UACC-257, > 100 µM (inactive); in the test on SK-MEL-28, > 100 µM (inactive). Further, the GI50 in the test with M14, with HCT-116, in the test with CCRF-CEM, in the test with A549, in the test on U-251 and with COLO 205 was > 100 µM (inactive) each time. In the test with SK-OV-3, the GI50 was > 100 µM (inactive).
On to `CSc1nc(NCc2ccccc2)c2cnn(COCCO)c2n1`, for which the GI50 with MOLT-4 was 26.3 µM (inactive); in the test with NCI-H226 it was 55.5 µM (inactive); in the test with Malme-3M it was 42.9 µM (inactive); in the test on K562, 40.1 µM (inactive); in the test with SF-539, > 100 µM (inactive); in the test with SNB-75 it was 0.152 µM (active). The GI50 in the test with SF-295 was 35.5 µM (inactive); in the test with NCI-H460 it was 39.3 µM (inactive); in the test with LOX IMVI, 38.6 µM (inactive); in the test on UACC-257, 20.3 µM (inactive); in the test on M14 it was 67.8 µM (inactive); in the test with HCT-116, 62.8 µM (inactive). Further, the GI50 is 51.6 µM (inactive) in the test on CCRF-CEM; 43.9 µM (inactive) in the test with A549; 44.5 µM (inactive) in the test with U-251; 29.9 µM (inactive) in the test on COLO 205; > 100 µM (inactive) with SK-OV-3.
For `COC(=O)C1CCCN1C(=O)OC(C)(C)C` (stereo not given), the GI50 was 23.3 µM (inactive) with MOLT-4; > 100 µM (inactive) in the test on NCI-H226; > 100 µM (inactive) in the test with K562; > 100 µM (inactive) in the test on SNB-75; above 100 µM with HCT-15; > 100 µM (inactive) with SF-295. Moreover, the GI50 in the test on NCI-H460, with LOX IMVI, in the test with UACC-257, in the test on SK-MEL-28, in the test with HCT-116 and with CCRF-CEM was > 100 µM (inactive) throughout. Moreover, the GI50 with A549, in the test with U-251, in the test on COLO 205 and in the test on SK-OV-3 was > 100 µM (inactive) in each case.
As to `FC(F)(F)C1(Cl)C(Cl)(c2ccccc2)C1(Cl)c1ccccc1` (stereo not given), the GI50 in the test on MOLT-4 is 10.3 µM (inactive); with NCI-H226, 13.9 µM (inactive); in the test on K562 it was 33.7 µM (inactive); with SF-539, 16.1 µM (inactive); with SNB-75, 16.3 µM (inactive); in the test with HCT-15, 13.7 µM. Further, the GI50 in the test with SF-295 is 15.8 µM (inactive); with NCI-H460, 15.8 µM (inactive); in the test with LOX IMVI, 13.3 µM (inactive); in the test on UACC-257, 14.6 µM (inactive); in the test with SK-MEL-28, 14.9 µM (inactive); with M14, 16.4 µM (inactive). Besides, the GI50 is 11.9 µM (inactive) in the test with HCT-116; 14.9 µM (inactive) with CCRF-CEM; 14.7 µM (inactive) in the test with A549; 14.7 µM (inactive) in the test on U-251; 19.2 µM (inactive) with COLO 205; 23.1 µM (inactive) in the test on SK-OV-3.
Regarding `CCC(CC)C(=O)OC[n+]1ccc(-c2c(COC(=O)NC(C)C)c(COC(=O)NC(C)C)c3n2CCC3)cc1`, the GI50 in the test on MOLT-4 was > 100 µM (inactive); with NCI-H226, > 100 µM (inactive); with A498, > 100 µM (inactive); in the test on K562, > 100 µM (inactive); in the test with SF-539, > 100 µM (inactive); with HCT-15, above 100 µM. The GI50 in the test on SF-295, with UACC-257, in the test on M14, with CCRF-CEM, in the test on A549 and in the test with U-251 was > 100 µM (inactive) in each case. Also, the GI50 with COLO 205 and in the test with SK-OV-3 was > 100 µM (inactive) in each case.
In the case of `O=c1[nH]c(C2CCCCC2)nc2ccc(Cl)cc12`, the GI50 in the test on MOLT-4 is > 100 µM (inactive); with NCI-H226 it was > 100 µM (inactive); with Malme-3M, > 100 µM (inactive); in the test on K562, > 100 µM (inactive); in the test with SF-539, > 100 µM (inactive); in the test with SNB-75 it was 38.3 µM (inactive). Moreover, the GI50 is above 100 µM in the test with HCT-15; > 100 µM (inactive) with SF-295; > 100 µM (inactive) with UACC-257; > 100 µM (inactive) in the test on SK-MEL-28; > 100 µM (inactive) in the test with HCT-116; > 100 µM (inactive) with A549. In addition, the GI50 in the test on U-251, in the test with COLO 205 and in the test with SK-OV-3 was > 100 µM (inactive) each time.
In the case of `COc1ccc2c(c1)CCCN1Cc3cc(OC)c(OC)cc3CC21` (stereo not given), the GI50 in the test on MOLT-4 is > 100 µM (inactive); with NCI-H226, > 100 µM (inactive); with Malme-3M it was > 100 µM (inactive); in the test with K562 it was 80.7 µM (inactive); with SF-539 it was 81.8 µM (inactive); in the test with SNB-75 it was 21.4 µM (inactive). Further, the GI50 in the test on HCT-15 is above 100 µM; with SF-295 it was > 100 µM (inactive); in the test with NCI-H460, 50.2 µM (inactive); in the test with LOX IMVI, 44.8 µM (inactive); with UACC-257, 56.1 µM (inactive); in the test with SK-MEL-28 it was > 100 µM (inactive). The GI50 in the test on M14 was 18.9 µM (inactive); with HCT-116 it was 18.2 µM (inactive); in the test on CCRF-CEM it was 99.8 µM (inactive); with A549, > 100 µM (inactive); with U-251 it was > 100 µM (inactive); with COLO 205, 51.1 µM (inactive). For the same compound, the GI50 in the test on SK-OV-3 is 66.2 µM (inactive).

Source of the values: ChEMBL document CHEMBL1201862, “PubChem BioAssay data set” (2004).
